The values that follow come from patent publication US20070155757A1, “Use of pyrimidine compounds in the preparation of parasiticides” (priority 2004, published 2007).

Structures are written as SMILES.

Usually melting point stands for the temperature, or range, at which the solid turns liquid. On to `NC(=O)Cc1c(Oc2ccc(F)c(C(F)(F)F)c2)ncnc1Oc1ccc(F)c(C(F)(F)F)c1` [Compound 1.29, [4,6-bis-(4-fluoro-3-(trifluoromethyl)phenoxy)]-pyrimidin-5-yl-acetamide], for which the melting point fell in the range of 122 to 124 °C.

In turn, `Nc1c(Oc2cccc(F)c2)ncnc1Oc1cccc(F)c1` [Compound 1.4, 4,6-bis-(3-fluorophenoxy)-pyrimidin-5-ylamine] gave a melting point of 110 to 112 °C. In turn, `Cc1cc(Oc2ncnc(Oc3ccc(F)c(C)c3)c2N)ccc1F` [Compound 1.20, 4,6-bis-(4-fluoro-3-methylphenoxy)-pyrimidin-5-ylamine] gave a melting point of 155 to 156 °C.
